Values quoted from earlier work, collected in patent publication US6472228B2, “Composition and methods for synthesis of novel tracers for detecting amphetamine and methamphetamine in samples” (Lifepoint, Inc., priority 2000, dated 2002).

Conditions: GC/MASS

Compound: CN[C@@H](C)Cc1ccccc1 [methamphetamine]
- detectable in saliva samples after the last dose: up to 2 days
